# In patent US9555036B2, “Pyrazolopyrimidine compounds” (GlaxoSmithKline LLC, priority 2012, dated 2017):
# Where a name gives a salt, the structure may show the parent alone.
# Tested on: TNF-α
# Assay: Induction of TNF-α using fresh human whole blood (WB)
# Format: cell-based
# Conditions: three donors, overnight incubation, cytokine as % of 2 μM resiquimod control, read-out: mean pEC50 for TNF-α (converted)
# Protocol: Assay for the Induction of Interferon-α and TNF-α Using Fresh Human Whole Blood (WB) Compound Preparation
# Compounds were prepared at 100× required concentration in DMSO in flat-bottom microtitre plates at a volume of 1.5 μL. Columns 1-10 contained a 1 in 4 serial dilution of the test compound. Included on each plate was a serial dilution of the TLR7/8 agonist resiquimod as a standard and Column 11 contained 1.5 μl of 200 μM resiquimod (giving a 2 μM final concentration, used to define the approximate maximal response to resiquimod). Each compound was assayed in duplicate for each donor.
# Incubation and Assays for Interferon-α and TNF-α
# Blood samples from three human donors were collected into sodium heparin (10 U/ml). 150 μl of whole Blood was dispensed into Col 1 to 11 of assay plates containing 1.5 μl of test compound or standard in DMSO. Plates were placed in an incubator overnight (37° C., 95% air, 5% CO2). Following the overnight incubation, plates were removed from the incubator & mixed on an orbital shaker for approximately 1 minute. 100 μl of 0.9% saline was added to each well and the plates mixed again on an orbital shaker. Plates were then centrifuged (2500 rpm, 10 mins), after which a sample of plasma was removed using a Biomek FX and assayed for both IFN-α and TNF-α using the MSD (Mesoscale Discovery) electrochemiluminescence assay platform. The IFN-α assay was carried out similarly to that described above. The TNF-α assay was carried out as per kit instructions (Cat No K111BHB).
# Cytokine released was expressed as a percentage of the 2 μM resiquimod control (column 11). This percentage was plotted against compound concentration and the pEC50 for the response determined by non-linear least squares curve fitting. For the IFN-α responses, generally a 4 parameter logistic model was selected. For the TNF responses where a clear maximum response was obtained (i.e. a well defined plateau in the response was observed) then a 4 parameter model was generally used. If the upper asymptote of the curve wasn't well defined then the curve fitting was generally constrained to a maximal response of 100% (i.e. to the response to 2 μM resiquimod) or to the response of the highest concentration tested if this was greater than the resiquimod response. Some curves were bell shaped for one or both cytokines and the cytokine data on the down slope of the bell shaped response (i.e. concentrations above those giving the maximal response) were generally excluded from the fit, usually with the exception of the concentration immediately above the peak response. Curve fitting thus concentrated on the up slope of the dose response curve.
row,Structure (SMILES),EC50
1,"CCCCc1nc(N)c2[nH]nc(CCCCCN3CCC(O)CC3)c2n1 [Example 16, 1-(5-(7-Amino-5-butyl-1H-pyrazolo[4,3-d]pyrimidin-3-yl)pentyl)piperidin-4-ol]",≤ 3.98 µM
2,"CCCCc1nc(N)c2[nH]nc(CCCCCCN3CC[C@H](F)C3)c2n1 [Example 11, (S)-5-Butyl-3-(6-(3-fluoropyrrolidin-1-yl)hexyl)-1H-pyrazolo[4,3-d]pyrimidin-7-amine]",≤ 3.98 µM
3,"CCCCc1nc(N)c2[nH]nc(CCCCCN3CC[C@H](F)C3)c2n1 [Example 12, (S)-5-Butyl-3-(5-(3-fluoropyrrolidin-1-yl)pentyl)-1H-pyrazolo[4,3-d]pyrimidin-7-amine]",≤ 3.98 µM
4,"CCCCc1nc(N)c2[nH]nc(CCCCCCN3CC[C@@H](F)C3)c2n1 [Example 13, (R)-5-Butyl-3-(6-(3-fluoropyrrolidin-1-yl)hexyl)-1H-pyrazolo[4,3-d]pyrimidin-7-amine formate]",≤ 3.98 µM
5,"CCCCc1nc(N)c2[nH]nc(CCCCCCN3CCC(F)CC3)c2n1 [Example 17, 5-Butyl-3-(6-(4-fluoropiperidin-1-yl)hexyl)-1H-pyrazolo[4,3-d]pyrimidin-7-amine formate]",≤ 3.98 µM
6,"CCCCc1nc(N)c2[nH]nc(CCCCCN3CC[C@@H](F)C3)c2n1 [Example 14, (R)-5-Butyl-3-(5-(3-fluoropyrrolidin-1-yl)pentyl)-1H-pyrazolo[4,3-d]pyrimidin-7-amine]",≤ 3.98 µM
7,"CCCCc1nc(N)c2[nH]nc(CCCCCN3CCC(F)CC3)c2n1 [Example 18, 5-Butyl-3-(5-(4-fluoropiperidin-1-yl)pentyl)-1H-pyrazolo[4,3-d]pyrimidin-7-amine]",≤ 3.98 µM

# Next, values leading:
row,EC50,Structure (SMILES)
1,≤ 3.98 µM,"CCCCc1nc(N)c2[nH]nc(CCCCCN3CCCC3)c2n1 [Example 6, 5-Butyl-3-(5-(pyrrolidin-1-yl)pentyl)-1H-pyrazolo[4,3-d]pyrimidin-7-amine]"
2,≤ 3.98 µM,"CCCCc1nc(N)c2[nH]nc(CCCCCCN3CCCCCC3)c2n1 [Example 9, 3-(6-(Azepan-1-yl)hexyl)-5-butyl-1H-pyrazolo[4,3-d]pyrimidin-7-amine]"
3,≤ 3.98 µM,"CCCCc1nc(N)c2[nH]nc(CCCCCN3CCCCCC3)c2n1 [Example 10, 3-(5-(Azepan-1-yl)pentyl)-5-butyl-1H-pyrazolo[4,3-d]pyrimidin-7-amine]"
4,≤ 3.98 µM,"COCCc1nc(N)c2[nH]nc(CCCCCCN3CCCC3)c2n1 [Example 4, 5-(2-Methoxyethyl)-3-(6-(pyrrolidin-1-yl)hexyl)-1H-pyrazolo[4,3-d]pyrimidin-7-amine]"
5,≤ 3.98 µM,"CCCCc1nc(N)c2[nH]nc(CCCCCCN3CCC(O)CC3)c2n1 [Example 15, 1-(6-(7-Amino-5-butyl-1H-pyrazolo[4,3-d]pyrimidin-3-yl)hexyl)piperidin-4-ol]"
6,≤ 3.98 µM,"CCCCc1nc(N)c2[nH]nc(CCCCCCCN3CCCCC3)c2n1 [Example 7, 5-Butyl-3-(7-(piperidin-1-yl)heptyl)-1H-pyrazolo[4,3-d]pyrimidin-7-amine]"
7,≤ 3.98 µM,"CCCCc1nc(N)c2[nH]nc(CCCCCCN3CCCCC3)c2n1 [Example 1, 5-Butyl-3-(6-(piperidin-1-yl)hexyl)-1H-pyrazolo[4,3-d]pyrimidin-7-amine formate]"
8,≤ 3.98 µM,"COCCc1nc(N)c2[nH]nc(CCCCCCN3CCCCC3)c2n1 [Example 2, 5-(2-Methoxyethyl)-3-(6-(piperidin-1-yl)hexyl)-1H-pyrazolo[4,3-d]pyrimidin-7-amine]"
9,≤ 3.98 µM,"CCCCc1nc(N)c2[nH]nc(CCCCCCCN3CCCC3)c2n1 [Example 8, 5-Butyl-3-(7-(pyrrolidin-1-yl)heptyl)-1H-pyrazolo[4,3-d]pyrimidin-7-amine]"
10,≤ 3.98 µM,"CCCCc1nc(N)c2[nH]nc(CCCCCN3CCCCC3)c2n1 [Example 5, 5-Butyl-3-(5-(piperidin-1-yl)pentyl)-1H-pyrazolo[4,3-d]pyrimidin-7-amine]"
